These results are taken from US8563009B2, “Use of monomycolyl glycerol (MMG) as an adjuvant” (priority 2007, dated 2013).

The test system of assay [1] is human peripheral blood monocyte-derived immature DC (iDC). In words: Activation of human immature dendritic cells, surface markers by flow cytometry. The class given is cell-based. To be noted: 24 h, 10 μg/ml lipid; for mean fold increase in CD86 levels above levels associated with untreated iDC: six individual donors.
For assay [2] the test system is unchanged. The class given is cell-based. The settings on record: 24 h, 10 μg/ml lipid, ELISA, Tukey test. (An ELISA detects its analyte on a solid surface through an enzyme-linked reagent.)
In assay [3] the test system is IFN-γ release by PBMC upon restimulation with antigen. In words: IFN-γ release by lymphocytes of mice immunised with Ag85B-ESAT-6 in adjuvant. To be noted: for immune response (IFN-γ release by PBMC) in the blood one week after the last vaccination: Ag85B-ESAT-6 in DDA, 10 μg MMG or analogue. The class given is in vivo, C57BL/6 mice.
Setting [4] is: 10 μg lipid in 250 μg DDA liposomes with 2 μg Ag85B-ESAT-6, s.c.

monomycolyl glycerol [MMG]: in assay [1], the “DC activation, upregulation of CD86, CD40 and HLA-DR (rank among purified apolar lipids)” value (“DC activation, upregulation of CD86” for short) was “most potent inducer of DC activation”; the “mean fold increase in CD86 levels above levels associated with untreated iDC” value (“mean fold increase” below) is recorded as 1.91±0.29 fold. Besides, the “IL-6 release by DC” value in assay [2] is given as “significantly greater levels”. In addition, the “IFN-γ levels upon restimulation of PBMC isolated from the draining lymph node” value in assay [3] (setting [4]) was found to be 10 ng/mL. Moreover, in assay [3], the “immune response (IFN-γ release by PBMC) in the blood one week after the last vaccination” value (shortened to “immune response (IFN-γ release by PBMC)”) is on record as “comparable levels of responses”.

In the case of `CCCCCCCCCCCCCCCCCC(O)C(CCCCCCCCCCCCCCCC)C(=O)OCC(O)CO` (centres unmarked) [synthetic MMG analogue with 36 carbons, 3-hydroxy-2-hexadecylicosanoic acid-2,3-dihydroxypropyl ester], the “immune response (IFN-γ release by PBMC)” value in assay [3] was “comparable levels of responses”.

For the compound `CCCCCCCCCCCCCCCCCC[N+](C)(C)CCCCCCCCCCCCCCCCCC.[Br-]` [DDA, dimethyldioctadecylammonium], the “immune response (IFN-γ release by PBMC)” value in assay [3] is “lower effect”.

For triacyl glycerols [TAGs], in assay [1], the “DC activation, upregulation of CD86” value is recorded as “induced less activation”; the “mean fold increase” value is given as 1.32±0.14 fold. The “IFN-γ production, draining lymph node (in words)” value (“IFN-γ production” for short) in assay [3] (setting [4]) is reported as “very little IFN-γ release”.

phthiocerol dimycocerosate A [PDIM A]: in assay [1], the “DC activation, upregulation of CD86” value is “second most active lipid”; the “mean fold increase” value amounted to 1.82±0.43 fold. Moreover, the “IFN-γ production” value in assay [3] (setting [4]) is listed as “albeit to a lower level”.

As for `CCCCCCCC(O)C(CCCCCC)C(=O)OCC(O)CO` (centres unmarked) [synthetic MMG analogue with 16 carbons, 3-hydroxy-2-hexyl-decanoic acid-2,3-dihydroxypropyl ester], the “immune response (IFN-γ release by PBMC)” value in assay [3] is reported as “comparable levels of responses”.

For the compound phenolic glycolipid [PGL], in assay [1], the “DC activation, upregulation of CD86” value is on record as “induced less activation”; the “mean fold increase” value stood at 1.52±0.26 fold. In addition, the “IFN-γ production” value in assay [3] (setting [4]) is on record as “very little IFN-γ release”.
